Results on five compounds are retold here after publication PMC7376037, “Recombinant expression, purification and PEGylation of Paneth cell peptide (cryptdin-2) with value added attributes against Staphylococcus aureus” (Scientific Reports, 2020).

≈ marks a conversion by molar mass, not a printed value. Like-named read-outs stand apart in the source and are kept apart here. Bridge positions count the residues as written; N and C are the ends. Peptide text beside a SMILES is read from it.

The test system of data set [1] is Staphylococcus aureus. It counts as cell-based. The settings on record: for MIC in combination, Peptides: peptide concentration in combination with gentamicin, checkerboard, S. aureus. The method, then: To investigate the interactive effect of these recombinant peptides, a checkerboard assay[41] was performed using a clinically prescribed antibiotic (gentamicin) as the other antibacterial agent. The assay employs the same methodology followed for determination of the MIC as described above. MIC values of peptide and gentamicin were used in this assay in order to calculate the FIC values. All the three peptide variants and gentamicin were tried in different ratios to evaluate interaction of the agents in combination against S. aureus. The same was determined on the basis of the FIC index, wherein an index of ≤ 0.5 indicated a synergistic effect and an index > 0.5 and ≤ 2 indicated an additive or indifferent nature of interaction respectively and lastly, the interaction was confirmed to be antagonistic when the index was > 2.0.
FIC index is expressed as: FIC Index=A1/A+B1/B where A1 and B1 are the respective concentrations of gentamicin and peptide producing the combined MICs, while A and B are the MICs of the individual agents.

Data set [2] in a line: Serum stability (antimicrobial activity after incubation in mice sera). Format: in vitro ADME. The following applies: for reduction of antibacterial activity after 3 h incubation with mice sera: peptide at its MIC, 50% mice serum, 37 °C, read-out micro broth dilution against S. aureus, repeated thrice in triplicates. As for the experimental part:
The stability of purified peptide preparations in mice sera was evaluated as described previously[15] with some modifications. Briefly, 80 µL of 50% serum was added to each well of 96-well plates followed by addition of 10 µL of bacterial suspension. The total CFU/mL value was adjusted to be identical in all the samples. Each peptide preparation (10 μL) was added to different wells and incubated at 37 °C for 0, 3, and 6 h respectively. The antimicrobial activities were assessed by performing micro broth dilution assay as described above for determination of MIC against S. aureus. The sera of mice were confirmed for absence of any intrinsic antimicrobial activity prior to performing the test.

Data set [3] deals with Staphylococcus aureus. The data set is described as follows: Radial diffusion (agar well diffusion) assay. It counts as cell-based, Staphylococcus aureus (ATCC 9144). The following applies: peptide 100 µg/well, overnight 37 °C, S. aureus. The method, then:
Antibacterial activity of all the cryptdin preparations was evaluated by performing radial diffusion assay. […] Following the addition of 20 μL aliquots of the cryptdin-2 preparations along with control sample (PBS) into a series of wells made in the gel, the plates were incubated overnight at 37 °C. The samples were examined for zone of clearance around the wells indicating inhibition of bacterial growth.

Data set [4] has as its system RAW 264.7 cell lines. The data set is described as follows: Cell cytotoxicity assay (AlamarBlue). It counts as cell-based, murine. The settings on record: 24 h. The method, then: The cytotoxicity of recombinant peptide variants towards RAW 264.7 cell lines was assessed using AlamarBlue (Resazurin), a cell metabolic activity reagent (Sigma)[40]. The log phase cells diluted (2 × 10^5/well) in Dulbecco's Modified Eagle Medium (DMEM) containing 10% fetal bovine serum (FBS) were cultured in 96-well microtiter plates and incubated for 12 h under 5% CO2 conditions at 37 °C. […] Following this, 0.02% Alamar blue reagent was added to the cells and incubated for 8 h. Fluorescence was measured with excitation wavelength at 545 nm and emission wavelength at 590 nm. The percent difference between treated and un-treated cells was calculated to determine percent cytotoxicity.

Data set [5] has as its system Staphylococcus aureus. The experiment in a line: microbe, parasite or virus in culture. Format: cell-based, Staphylococcus aureus (ATCC 9144). The method, then: To determine MIC values of the peptide preparations, micro broth dilution assay was performed. Briefly, S. aureus cells were grown to mid-exponential phase and diluted to a concentration of approximately 10^7 CFU/mL. Different concentrations of AMP preparations were separately added to wells containing bacterial suspension (approximately 10^6 CFU/mL) in sterile 96-well flat-bottom plate. After incubation at 37 °C, cell growth inhibition was assessed by measuring the absorbance at 595 nm on microplate reader (BioTek). MIC was recorded as the lowest concentration of the peptide preparation at which no visible growth was observed.

For data set [6] the following is noted: cited from earlier work. An excerpt: However, lesser adverse effect was observed on cell membrane when treated with the PEGylated peptide. These findings correlated well with the increased MIC of the peptide as observed above. It is highly probable that site-specific mutation followed by PEG-conjugat ...

As to `CSCC[C@@H]1NC(=O)[C@H](CCCNC(=N)N)NC(=O)[C@H](CS)NC(=O)[C@H](CCCNC(=N)N)NC(=O)[C@H](CCCNC(=N)N)NC(=O)[C@H](CCCCN)NC(=O)[C@@H]2CSSC[C@@H]3NC(=O)[C@H](CC(C)C)NC(=O)[C@H]([C@@H](C)O)NC(=O)[C@H](Cc4ccc(O)cc4)NC(=O)[C@H](CCSC)NC(=O)[C@H](CC(C)C)NC(=O)[C@H](Cc4c[nH]cn4)NC(=O)CNC(=O)[C@H](CCCCN)NC(=O)[C@H](CCCNC(=N)N)NC(=O)[C@H](CSSC[C@H](NC(=O)[C@H](Cc4ccc(O)cc4)NC(=O)[C@@H](NC(=O)[C@@H](NC(=O)[C@H](CC(C)C)NC(=O)[C@H](CC(=O)O)NC(=O)[C@H](CCCNC(=N)N)NC(=O)[C@@H](N)CC(C)C)C(C)C)CSSC[C@@H](C(=O)N[C@@H](CCCNC(=N)N)C(=O)O)NC3=O)C(=O)N[C@@H](CCCNC(=N)N)C(=O)N[C@@H]([C@@H](C)O)C(=O)N[C@@H](CCCNC(=N)N)C(=O)NCC(=O)N2)NC(=O)[C@H]([C@@H](C)O)NC(=O)CNC(=O)[C@H](CC(N)=O)NC1=O` [E18C cryptdin-2] (H-LRDLVCYCRTRGCKRRCRMNGTCRKGHLMYTLCCR-OH; disulfide 6-34, 8-23, 13-33), in data set [1], the FIC indices came to 0.375 and the “MIC in combination, Peptides” value worked out at 2.5 µg/mL. In data set [2], the “MIC after incubation with serum, 0 h” value amounted to 20 µg/mL; the “MIC after incubation with serum, 3 h” value worked out at 40 µg/mL; the “MIC after incubation with serum, 6 h” value stood at 60 µg/mL; the “reduction of antibacterial activity after 3 h incubation with mice sera” value came to 50%. In data set [3], the “antimicrobial activity, zone of growth inhibition” value is recorded as “potent antimicrobial activity”. Further, the cell viability in data set [4] is recorded as ~65%.

On to `CNC(C)C1CCC(N)C(OC2C(N)CC(N)C(OC3OCC(C)(O)C(NC)C3O)C2O)O1` (stereo not shown) [Gentamicin, gentamicin, reference compound], for which the MIC in data set [5] (agent alone against Staphylococcus aureus, Table 1, read-out: MIC) turned out to be 0.097 µg/mL (≈ 0.203 µM).

Regarding `CSCC[C@@H]1NC(=O)[C@H](CCCNC(=N)N)NC(=O)[C@H](CCC(=O)O)NC(=O)[C@H](CCCNC(=N)N)NC(=O)[C@H](CCCNC(=N)N)NC(=O)[C@H](CCCCN)NC(=O)[C@@H]2CSSC[C@@H]3NC(=O)[C@H](CC(C)C)NC(=O)[C@H]([C@@H](C)O)NC(=O)[C@H](Cc4ccc(O)cc4)NC(=O)[C@H](CCSC)NC(=O)[C@H](CC(C)C)NC(=O)[C@H](Cc4c[nH]cn4)NC(=O)CNC(=O)[C@H](CCCCN)NC(=O)[C@H](CCCNC(=N)N)NC(=O)[C@H](CSSC[C@H](NC(=O)[C@H](Cc4ccc(O)cc4)NC(=O)[C@@H](NC(=O)[C@@H](NC(=O)[C@H](CC(C)C)NC(=O)[C@H](CC(=O)O)NC(=O)[C@H](CCCNC(=N)N)NC(=O)[C@@H](N)CC(C)C)C(C)C)CSSC[C@@H](C(=O)N[C@@H](CCCNC(=N)N)C(=O)O)NC3=O)C(=O)N[C@@H](CCCNC(=N)N)C(=O)N[C@@H]([C@@H](C)O)C(=O)N[C@@H](CCCNC(=N)N)C(=O)NCC(=O)N2)NC(=O)[C@H]([C@@H](C)O)NC(=O)CNC(=O)[C@H](CC(N)=O)NC1=O` [cryptdin-2] (H-LRDLVCYCRTRGCKRRERMNGTCRKGHLMYTLCCR-OH; disulfide 6-34, 8-23, 13-33), the “MIC in combination, Peptides” value in data set [1] came to 2.5 µg/mL. This compound showed an MIC in data set [5] of 20 µg/mL (≈ 4.71 µM). In data set [2], the “MIC after incubation with serum, 0 h” value amounted to 20 µg/mL; the “MIC after incubation with serum, 3 h” value amounted to 40 µg/mL; the “MIC after incubation with serum, 6 h” value is 70 µg/mL; the “reduction of antibacterial activity after 3 h incubation with mice sera” value is 50%. Further, the “antimicrobial activity, zone of growth inhibition” value in data set [3] was “potent antimicrobial activity”. Besides, the cell viability entry in data set [4] was “approximately 70%”.

For magainin 2, the “decrease in antimicrobial activity after PEG conjugation” value in data set [6] (5 kDa PEG at N-terminal end) is “fourfold”.

For the compound nisin, the “antimicrobial activity after PEGylation” value in data set [6] (PEGylation via amine group of the lysine side-chain) is “inactive conjugate”.
